Assay results from US20190276481A1, “Liver Prodrugs of Mitochondrial Proton Ionophores” (NEUROVIVE PHARMACEUTICAL AB, priority 2016, published 2019).

Experiments:
[1] = tested on: isolated rat liver mitochondria; assay: Uncoupling potential in isolated mitochondria (free mitochondrial uncoupling, oxygraph respiration); assay type: biochemical; conditions: fixed concentrations, vs DMSO control, FIGS. 1, 2, 4-6
Experimental: The potency of mitochondrial uncoupling without prodrug metabolism may be tested as follows:
Isolated rat liver mitochondria are prepared according to Hansson et al (Hansson et al (Brain Res. 2003 Jan. 17; 960(1-2):99-111.). Respiration is measured at a constant temperature of 37° C. in a high-resolution oxygraph (Oxygraph-2k Oroboros Instruments, Innsbruck, Austria) in 2 ml glass chambers with stirrer speed 750 rpm. Data is recorded with DatLab software (Oroboros Instruments, Innsbruck, Austria) with sampling rate set to 2 s at an oxygen concentration in the range of 210-50 μM O2. If necessary, reoxygenation is performed by partially raising the chamber stopper for a brief air equilibration. Instrumental background oxygen flux is measured in a separate set of experiments and automatically corrected for in the ensuing experiments according to the manufacturer's instructions. To measure respiration of isolated mitochondria, samples are suspended in a mitochondrial respiration medium (MiR05) containing sucrose 110 mM, HEPES 20 mM, taurine 20 mM, K-lactobionate 60 mM, MgCl2 3 mM, KH2PO4 10 mM, EGTA 0.5 mM, BSA 1 g/l, pH 7.1. After reaching stabilized respiration in the presence of substrates (malate (5 mM), glutamate (5 mM), pyruvate (5 mM) and succinate (10 mM)), state 3 respiration is induced by supplementation with ADP (1 mM) followed by addition of oligomycin (1 μg/ml, ATP-synthase inhibitor) causing state 4O. State 4O is a respiratory state dependent on the back-flux of protons across the mitochondrial membrane due to inhibition of the ATP-synthase and in the presence of saturating substrate concentrations and ADP. Drug candidates and their respective payloads of known protonophores are given at fixed concentrations to induce uncoupled respiration. Rotenone (2 μM, complex I [CI] inhibitor), antimycin-A (1 μg/ml, complex III [CIII] inhibitor) and sodium azide (10 mM) are then added to inhibit the ETS providing the residual, non-mitochondrial oxygen consumption which all respiratory values are corrected for.

[2] = tested on: HepG2 cells (hepatic) vs platelets (extra-hepatic); assay: In vitro uncoupling in HepG2 cells (hepatic) vs platelets (extra-hepatic); assay type: cell-based; conditions: high maximal uncoupling at low concentrations in HepG2 cells; FIGS. 7-12
Experimental: (§1) For respiration measurements in HepG2 cells and platelets, cells are suspended in a mitochondrial respiration medium MiR05 at 37° C. in a high-resolution oxygraph (Oxygraph-2k Oroboros Instruments, Innsbruck, Austria). […] To evaluate the contribution of respiration independent of ADP phosphorylation, oligomycin (1 μg/ml, ATP-synthase inhibitor) is sequentially added inducing LEAK respiration state (a respiratory state where oxygen consumption is dependent on the back-flux of protons across the mitochondrial membrane). Drug candidates and known protonophores are carefully titrated to induce maximal uncoupled respiration/maximal rate of the ETS (electron transport system) at endogenous substrate supply and continued until a decrease or at least no further increase of uncoupled respiration is observed. Rotenone (2 μM, complex I [CI] inhibitor) and antimycin-A (1 μg/ml, complex III [CIII] inhibitor) are then added to inhibit the ETS, thus providing the residual, non-mitochondrial oxygen consumption, which all values were corrected for.
(§2) The potency of mitochondrial uncoupling with prodrug metabolism be tested as follows: • a) HepG2 cells (to simulate uncoupling with liver cell metabolism) • b) Platelets (to simulate uncoupling in blood)
It is advantageous to have an increased level of uncoupling in hepatic tissue as compared to extra-hepatic tissue. To test for this, compounds were tested in an in vitro uncoupling assay (see Assays for evaluating mitochondrial uncoupling in intact liver cells and platelets in general methods) in HepG2 cells (hepatic) vs platelets (extra-hepatic).

[3] = Relative liver exposure vs extra-hepatic organs: salicylanilide levels after oral dosing; assay type: in vivo; conditions: CD-1 mice
Experimental: For example, mice or rats are dosed with 1 or 3 mg/kg of the compound of the invention i.v. or 1, 5 or 10 mg/kg of the compound of the invention p.o. Blood samples are taken at 5 min, 15 min, 1 h, 4 h and 24 h intervals, and the concentration of the compound of the invention in the sample is determined via LCMS-MS. The time-course of plasma or whole blood concentrations can then be used to derive key parameters such as the area under the plasma or blood concentration-time curve (AUC—which is directly proportional to the total amount of unchanged drug that reaches the systemic circulation), the maximum (peak) plasma or blood drug concentration, the time at which maximum plasma or blood drug concentration occurs (peak time), additional factors which are used in the accurate determination of bioavailability include: the compound's terminal half-life, total body clearance, steady-state volume of distribution and F %.
As it is advantageous to have an increased ratio of liver uncoupling versus extra hepatic uncoupling, 3 mg/kg salicylanilide or 10 mg/kg compound 14 or 10 mg/kg compound 23 (which releases salicylanilide) were dosed orally to CD-1 mice and levels of salicylanilide were measured in blood, muscle and liver samples before and after dosing (see general methods). The ratio of liver vs extra-hepatic salicylanilide was then assessed, with a high ratio desirable, as this is anticipated to lead to reduced off-target uncoupling and toxicity.

[4] = Hsaio et al., 2005; cited from earlier work
[5] = Caco-2 permeability assay; assay type: in vitro ADME; conditions: human
Experimental: (§3) The permeability coefficient (Papp) is calculated from the following equation:
(§4) Where dQ/dt is the amount of compound in basal (A-B) or apical (B-A) compartment as a function of time (nmol/s). C0 is the initial concentration in the donor (apical or basal) compartment (Mean of T=0) (nmol/mL) and A is the area of the transwell (cm^2).
(§5) The efflux ratio is then calculated as: […]
(§6) Cell permeability may be tested as follows: The test compound is dissolved to 10 mM in DMSO and then diluted further in buffer to produce a final 10 μM dosing concentration. The fluorescence marker lucifer yellow is also included to monitor membrane integrity. Test compound is then applied to the apical (A) surface of Caco-2 cell monolayers and compound permeation into the basolateral (B) compartment is measured. This is performed in the reverse direction (basolateral to apical) to investigate active transport (efflux). LC-MS/MS is used to quantify levels of both the test and standard control compounds (such as Propanolol and Acebutolol).

HepG2 cells = assay: Mitochondrial uncoupling assay in intact HepG2 liver cells; assay type: cell-based; conditions: FIG. 3
Experimental: as §1, §2

Caco-2 cell monolayers = assay: Caco-2 permeability assay; assay type: in vitro ADME
Experimental: as §3, §4, §5, §6

SMILES	uncoupling in isolated mitochondria (without prodrug metabolism) [1]	selectivity of uncoupling, HepG2 cells vs platelets [2]	also measured
COP(=O)(N[C@@H](C)C(=O)OC(C)C)OCOc1ccc([N+](=O)[O-])cc1[N+](=O)[O-] (stereo partly shown) [Compound 1]	reduced, little or no uncoupling		
CC(C)OC(=O)[C@H](C)NP(=O)(N[C@@H](C)C(=O)OC(C)C)OCOc1ccc([N+](=O)[O-])cc1[N+](=O)[O-] [Compound 2]	reduced, little or no uncoupling		
CC(C)OC(=O)[C@H](C)NP(=O)(N[C@@H](C)C(=O)OC(C)C)OCOc1ccc([N+](=O)[O-])cc1 [Compound 4]	reduced, little or no uncoupling		
CC(C)OC(=O)[C@H](C)NP(=O)(N[C@@H](C)C(=O)OC(C)C)OCOc1ccc(Cl)cc1C(=O)Nc1ccc([N+](=O)[O-])cc1Cl [Compound 6]	reduced, little or no uncoupling	selective uncoupling in HepG2 cells as compared to platelets	
C[C@H](NP(=O)(N[C@@H](C)C(=O)OCC(C)(C)C)OCOc1ccc([N+](=O)[O-])cc1)C(=O)OCC(C)(C)C [Compound 9]	reduced, little or no uncoupling	selective uncoupling in HepG2 cells as compared to platelets	
CC(C)OC(=O)[C@H](Cc1ccccc1)NP(=O)(N[C@@H](Cc1ccccc1)C(=O)OC(C)C)OCOc1ccc([N+](=O)[O-])cc1[N+](=O)[O-] [Compound 11]	reduced, little or no uncoupling	selective uncoupling in HepG2 cells as compared to platelets	
CC(C)OC(=O)[C@H](Cc1ccccc1)NP(=O)(N[C@@H](Cc1ccccc1)C(=O)OC(C)C)OCOc1ccccc1C(=O)Nc1ccccc1 [Compound 14]	reduced, little or no uncoupling	selective uncoupling in HepG2 cells as compared to platelets	ratio of liver to extra-hepatic exposure (in words) [3]: desirable ratios of liver to extra-hepatic exposure; Salicylanilide in blood after 1 h ([3]; 3 mg/kg salicylanilide or 10 mg/kg compound 14 or 23): BQL
COP(=O)(N[C@@H](C)C(=O)OC(C)C)OCOc1ccc(Cl)cc1C(=O)Nc1ccc([N+](=O)[O-])cc1Cl (stereo partly shown) [Compound 18]	reduced, little or no uncoupling	selective uncoupling in HepG2 cells as compared to platelets	
C[C@H](NP(=O)(N[C@@H](C)C(=O)OCC(C)(C)C)OCOc1ccccc1C(=O)Nc1ccccc1)C(=O)OCC(C)(C)C [Compound 23]	reduced, little or no uncoupling	selective uncoupling in HepG2 cells as compared to platelets	ratio of liver to extra-hepatic exposure (in words) [3]: desirable ratios of liver to extra-hepatic exposure
O=[N+]([O-])c1ccc(O)c([N+](=O)[O-])c1 [DNP, 2,4 dinitrophenol]	potent uncoupling		acute administration that can be lethal [4]: 20-50 mg/kg body weight; efflux ratio at 10 µM [5]: 1.1; Papp A→B at 10 μM ([5]; apical to basolateral): 24 ×10⁻⁶ cm/s; Papp B→A at 10 μM ([5]; basolateral to apical): 27 ×10⁻⁶ cm/s
O=C(Nc1ccccc1)c1ccccc1O [Salicylanilide, 2-Hydroxy-N-phenylbenzamide]			maximal uncoupling effect compared to DNP (HepG2 cells): lesser maximal uncoupling effect; uncoupling potency compared to DNP (HepG2 cells): more potent compared to DNP; Caco-2 efflux ratio compared to DNP (in words) (Caco-2 cell monolayers): reduced efflux ratio; Caco-2 permeability compared to DNP (in words) (Caco-2 cell monolayers): increased permeability; efflux ratio [5]: 0.8; Papp A→B ([5]; apical to basolateral): 39.5 ×10⁻⁶ cm/s; Papp B→A ([5]; basolateral to apical): 33 ×10⁻⁶ cm/s; ratio of liver to extra-hepatic exposure (in words) [3]: desirable ratios of liver to extra-hepatic exposure
